Legend:
[1] = Acute toxicity (LD50, oral, mice); conditions: mouse, in vivo, dd-strain male mice 20 to 25 g, fasted overnight, suspended in 0.5% carboxymethyl cellulose, observed seven days
Excerpt: The compounds to be tested were suspended in 0.5% carboxymethyl cellulose solution, and the suspension was orally administrated in variable amounts in response to the weights of dd-strain male mice having those ranging from 20 to 25 g which were forced to abstain from food overnight.

[2] = test system: acetic acid stretching symptom; assay: Analgesic activity (Acetic acid stretching method); format: in vivo, mouse (ddy-strain); conditions: 100 mg per kg oral, ddy-strain mice, 0.2 ml of 0.7% acetic acid intraperitoneal
Protocol: (3) Analgesic activity (Acetic acid stretching method)
After the compounds to be tested were orally administrated in 100 mg per kg of ddy-strain mice having their weight range of 20 to 25 g, 0.2 ml of 0.7% acetic acid was intra-peritoneally administrated to each animal to observe stretching symptom thereby having found the inhibition ratio (%).

[3] = test system: carrageenin edema; assay: Anti-inflammatory activity (Carrageenin edema method); format: in vivo, rat (Wistar strain; conditions: 100 mg per kg oral, Wistar-strain male rats, 0.1 ml of 1% carrageenin s.c. left hind paw, edema weight after three hours, vs control group
Protocol: (2) Anti-inflammatory activity (Carrageenin edema method)
The compounds to be tested were suspended in 0.5% carboxymethyl cellulose solution, and the suspension was orally administrated in 100 mg per kg of Wistarstrain male rats having their weight range of 130 to 170 g which were forced to abstain from food overnight. These rats were then injected subcutaneously into their left hind paws each with 0.1 ml of a physiological NaCl solution having dissolved therein carrageen in 1% concentration. After three hours from said injection, the rats were killed, both hind legs were cut out and promptly weighed. There is assumed as weight of edema a value obtained by deducting a weight of untreated hind leg from that of the carrageenin injected hind leg of the rat. Inhibition ratio of a sample-administrated group to a control group has been sought. The control group was administrated only with 0.5% […] solution in the same manner.

| Structure (SMILES) | LD50 at 168 h [1] [mg/kg] | Analgesic activity (Stretching method), inhibition ratio [2] [%] | Anti-inflammatory activity (Carrageenin edema method), inhibition ratio [3] [%] |
| --- | --- | --- | --- |
| Cc1cc(C(=O)C=NO)on1 [(3-Methylisoxazole-5-yl)glyoxal-2-oxim, (3-methylisoxazole-5-yl)glyoxal-2-oxim] | 890 | 50 | 83 |
| O=C(C=NO)c1cc(-c2ccccc2)no1 [(3-Phenylisoxazole-5-yl)glyoxal-2-oxim, (3-phenylisoxazole-5-yl)glyoxal-2-oxim] | 1690 | 75 | 56 |

From patent US4243812A, “Processes for the preparation of glyoxal-2-oxims” (Taiho Pharmaceutical Company, priority 1978, dated 1981)
